From article PMC10786269 (Proceedings of the National Academy of Sciences of the …, 2024)
Structures can show the parent of a compound that is named as a salt.

What was measured:
[1] = target: T1, Polyphosphate kinase-1 (PPK-1, Rv2984) (Mycobacterium tuberculosis, UniProt P9WHV9); assay: microscale thermophoresis; type: binding
T1 sequence (P9WHV9 1-742): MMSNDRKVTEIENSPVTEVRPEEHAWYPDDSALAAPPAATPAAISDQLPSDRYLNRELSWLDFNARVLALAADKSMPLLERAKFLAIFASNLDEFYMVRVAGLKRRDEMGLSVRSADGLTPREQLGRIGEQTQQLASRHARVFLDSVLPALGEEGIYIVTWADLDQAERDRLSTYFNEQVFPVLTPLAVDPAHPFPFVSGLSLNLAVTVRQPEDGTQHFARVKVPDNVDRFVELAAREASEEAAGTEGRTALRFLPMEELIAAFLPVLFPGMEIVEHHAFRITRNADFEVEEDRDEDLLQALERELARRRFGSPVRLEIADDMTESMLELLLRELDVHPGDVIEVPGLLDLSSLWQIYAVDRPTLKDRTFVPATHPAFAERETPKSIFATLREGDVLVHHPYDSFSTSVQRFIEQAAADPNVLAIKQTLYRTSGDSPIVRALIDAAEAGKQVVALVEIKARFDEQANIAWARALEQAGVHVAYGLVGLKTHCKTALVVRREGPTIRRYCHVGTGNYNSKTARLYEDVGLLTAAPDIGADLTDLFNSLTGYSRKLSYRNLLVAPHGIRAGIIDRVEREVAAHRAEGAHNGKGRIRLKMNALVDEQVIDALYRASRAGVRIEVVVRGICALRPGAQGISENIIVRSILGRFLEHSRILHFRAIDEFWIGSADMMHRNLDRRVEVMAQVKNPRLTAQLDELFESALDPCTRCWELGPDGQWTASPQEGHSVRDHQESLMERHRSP

[2] = target: T1, Polyphosphate kinase-1 (PPK-1, Rv2984); type: biochemical

With `O=C(c1ccc(OCCN2CCCCC2)cc1)c1c(-c2ccc(O)cc2)sc2cc(O)ccc12` [Cpd-11, raloxifene hydrochloride] the Kd [1] was 40 µM.

With `O=C1OC2(c3ccccc31)c1ccc(O)c(O)c1Oc1c2ccc(O)c1O` [gallein] the “inhibition of PPK-1 ATP and polyP synthesis (SI Appendix Fig. S6 A-C)” value [2] was “gallein inhibited both ATP and polyP synthesis activity associated with the PPK-1 homolog from M. tuberculosis”.
